“Also recorded” adds a separate entry of the source.
What was measured:
[1] = pH 7.4
[2] = system: etiolated soybean seedlings; experiment: Soybean seedlings irradiated with low fluence UV, grown with or without phenylalanine in the growth media; assay type: in vivo, soybean (Glycine max L.); conditions: for protection from the effects of high energy UV (lack of seed development, seed death): 1 mM phenylalanine in growth media, low fluence 300, 305, 311 or 317 nm on day 3 after planting
From the text: Three varieties, Williams, Forrest, and Williams 82, serve as the progenitor germplasms used in many US soybean breeding programs. These germplasms were used in the experiments described in the Examples, and representative data is shown. In general soybean experiments are done using etiolated seedlings irradiated 3 days after planting or 7 days after planting, in contrast to the regime (6 days dark growth) used for Arabidopsis experiments. For the soybean experiments we have used a high intensity light source filtered through narrow band pass for a low fluence radiation dose of (10^4 μmol m^−2), with (10 nm half band width) filters of peak pass-through at 300, 305, 311, 317, 325, 332 and 368 nm. Soybean primary leaves are sensitive to UV, with the greatest damage occurring in response to irradiation with the greatest energy (smallest wavelength). Three day old etiolated wild type Williams, Forest and Williams 82 soybean seedlings of were individually irradiated with a single low fluence pulse of 300, 305, 311, 317, 325, 332, 368 nm or no light (as a control). After irradiation seedlings were maintained in a summer day-night cycle (14 hr white light: 10 hr dark) to allow for photoreactivation and other forms of light mediated repair until day 8. Irradiation with 300, 305 or 311 nm light results in a “severe” damage with a greater then 70% mortality rate by day 8 (FIGS. 9,10). Irradiation with 317 or 325 nm results in a ‘moderate’ response, with a mortality of approximately 20%. […] Seedlings irradiated with 300, 317 or 368 nm light, or no UV light (as a control) were assessed 3, 7, 14, 21 and 28 days post planting. […] The very young seedlings were able to use the phenylalanine in the growth media to supplement the limiting amounts available in the seed to produce a larger quantity of UV screening pigments, and perhaps other compounds important to UV protection, thereby protecting themselves against the UV itself and perhaps enacting enhanced repair functions after the UV irradiation. […]

[3] = system: etiolated Arabidopsis seedlings; experiment: Cotyledon natural fluorescence by deconvoluting microscopy; assay type: in vivo; conditions: 1.0 mM Phe in medium; salt stress; mutant seedlings; listed as Phe
Protocol: Fluorescent images were obtained of living unfixed seedlings 24 h post BL or ABA treatment as described in the “Plant Growth and Preparation of Tissue” section. Optical sectioning was achieved by using a Zeiss Axiovert 200M microscope (Carl Zeiss), equipped with ApoTome (collected by grid projection), and a digital camera and the 4#,6-diamino-phenylindole, fluorescein isothiocyanate, and Texas Red filter sets (Chroma). Photographs of whole cotyledon fluorescence were snapped on the same microscope set up, minus the apoTome setting.
The preparation of whole cell extracts from the areal portions of the seedlings for the quantification of Phe levels and PD1 activity levels is described in (Warpeha et al., Plant Physiol. 143:1590-1600, 2007). Phe concentration is determined by HPLC. […] Natural fluorescence of the cotyledons is visualized and quantitated by deconvoluting microscopy using a “DAPI-Long Pass” filter which allows excitation between 300-380 nm and emits with a cutoff […] 400 nm.
If the Phe produced by activated PD1 is necessary for the ability of young etiolated seedlings to respond to UV-B, salt or heat stress, then it is possible that the addition of exogenous Phe (effectively cross feeding Phe) could restore a wild type response to GCR1, GPA1 and PD1 mutants when assayed for cotyledon fluorescence and the ability to survive sub-lethal levels of UV-C. To determine if exogenous Phe can restore wild type responses to GCR1, GPA, and PD1 mutants, 1 mM Phe is added to the top agar during planting and the experiment described above specifically testing for cotyledon surface fluorescence and the ability to survive sub-lethal levels of UV-C is repeated. Serine and […] are used as negative controls in these assays.
The experiments described above for examining if GCR1, GPA1 and PD1 are required for young etiolated seedlings to respond to UV-B, salt or heat stress are performed but with ABA, ACC, JA and SA substituting for UV-B, salt and heat. For these experiments, ABA is tested at 1.0 μM dissolved in ethanol and applied as an atomized mist. […]

[4] = Stability of absorbance spectra of cell free extracts with or without phenylalanine; assay type: physicochemical, Arabidopsis; conditions: for stability of the extract solution (absorbance spectra, pigments) over time: cell free extracts in buffer, 24 h, room temperature or +4° C., lab lighting
Protocol: Cell free extracts were left at room temperature for 24 h after a 10^5 μmol m^−2 treatment of UV (366 nm) in lab lighting (which is fluorescent).

degradation in buffered solution [1]: appeared to not degrade even for days
stability of the extract solution (absorbance spectra, pigments) over time ([4]; listed as Phenylalanine): remained stable
deviation from initial 24 h post absorbance spectra ([4]; extracts with phenylalanine added, UV (366 nm) treated, stored at +4° C. for 4 days): less than 10%
SMILES: N[C@@H](Cc1ccccc1)C(=O)O [phenylalanine]
growth characteristics after UV irradiation ([2]; 1.0 mM Phe in growth media, seven d post-irradiation): restores growth characteristics regardless of UV wavelength
protection from the effects of high energy UV (lack of seed development, seed death) [2]: able to ameliorate the most negative of the effects of high energy UV
protection from the effects of high energy UV (lack of seed development, seed death) ([2]; listed as Phe): can overcome the most deleterious effects of high energy UV in soybean
restoration of cotyledon surface fluorescence in mutants [3]: can restore the responses in the mutants to those observed for wild type seedlings; also recorded: can restore wild type responses to AGB1 and AGG1 mutants
stability of the extract solution (absorbance spectra, pigments) over time [4]: remain stable over time; also recorded: clear difference in stability in the solution when phenylalanine is added

— patent US8492614B2, “Plant biochemical systems and uses thereof” (The Board of Trustees of the University of Illinois, priority 2007, dated 2013)
